In patent publication US12178885B2, “Method for mediating targeted delivery of a composition to the brain of a subject in need thereof” (Fudan University, priority 2018, dated 2024):
Peptide text beside a SMILES is read from it.

What was measured:
orthotopic U87 glioma = experiment: anti-glioma efficacy: median survival time of orthotopic tumor model mice; type: in vivo, nude mice; conditions: tail vein, adriamycin 2 mg/kg per injection, days 7, 9, 11, 13, 15; saline group 27 days
Description: By injecting SP modified delivery system, unmodified polypeptide delivery system, free drug and normal saline into nude mice bearing orthotopic U87 glioma model via tail vein, the anti-tumor effect of SP modified delivery system in vivo is evaluated with the median survival time, apoptosis of tumor tissue and neovascularization density as indicators.
Establishment of glioma model in nude mice: Took U87 cells in logarithmic growth phase, digested and counted the cells, suspended them with appropriate amount of PBS buffer, inoculated 6×10^5 cells (dispersed in 5 μL PBS buffer) to each nude mouse. The nude mice was anesthetized with 7% chloral hydrate before the experiment, fixed with a brain stereotactic instrument, and inoculated the suspended cells to the striatum (i.e. 0.6 mm forward, 1.8 mm to the right, and 3 mm deep of the anterior fontanelle). Regularly observed the state of nude mice after operation.
Nude mice with orthotopic brain tumor model were randomly divided into 4 groups (n=13), and their body weight was recorded on the 7th, 9th, 11th, 13th and 15th day, respectively.

SP antibody = experiment: competition ELISA for binding of SP antibody to SP fixed on 96-well plate; conditions: without plasma incubation
Description: The specific operation was as follows: 0.1 μg SP-PEG-DSPE was added to each well of ELISA plate, left overnight at room temperature, washed with PBS for 3 times, sealed with 3% BSA for 1 h, and the BSA solution was sucked off Added SP antibody, incubated at 37° C. for 1 h, washed with PBS for three times, added liposome incubated with serum or PBS in advance and diluted in gradient, incubated at 37° C. for 1 h, washed with PBS for three times, added corresponding horseradish peroxidase labeled secondary antibody, reacted with TMB chromogenic solution for 3-15 min after 1 h, stopped the reaction with 2 M H2SO4, and measured its absorbance value at 450 nm wavelength.

neural cell line PC12 = conditions: gradient concentration of SP co-cultured with PC12
Text: Safety evaluation: The gradient concentration of SP was co-cultured with nerve cell line PC12 to evaluate its cytotoxicity in vitro. At the same time, the heart, liver, spleen, lung and kidney tissues of mice in the pharmacodynamic test of orthotopic tumor were dissected and fixed in PBS solution of 4% paraformaldehyde, paraffin-embedded sections were made, stained with HE, observed and photographed under a microscope. the experimental results are shown in FIG. 10.

| Compound | median survival time (orthotopic U87 glioma) [days] | competition for interaction between SP and antibody (SP antibody) | cytotoxicity (neural cell line PC12) |
| --- | --- | --- | --- |
| COc1cccc2c1C(=O)c1c(O)c3c(c(O)c1C2=O)C[C@@](O)(C(=O)CO)C[C@@H]3O[C@H]1C[C@H](N)[C@H](O)[C@H](C)O1 [DOX, adriamycin] | 31 | – | – |
| CC[C@H](C)[C@H](NC(=O)[C@H](C)NC(=O)CNC(=O)[C@H](CCCCN)NC(=O)[C@H](CC(N)=O)NC(=O)[C@H](CO)NC(=O)CN)C(=O)N[C@H](C(=O)NCC(=O)N[C@@H](CC(C)C)C(=O)N[C@@H](CCSC)C(N)=O)[C@@H](C)CC [SP] (H-GSNKGAIIGLM-NH2) | – | can compete for the interaction between SP and antibody | did not show cytotoxicity |
